Data as given in patent publication US5100913A, “Novel sulfonylphenyl-β-D-thioxylosides, their method of preparation and their use in therapeutics” (Fournier Industrie et Sante, priority 1990, dated 1992).

Tested on: venous thrombosis
Assay: antithrombotic activity, venous thrombosis: venous stasis under hypercoagulation (Wessler), thrombus removed and weighed
Format: in vivo, male Wistar rats
Details: Rattus norvegicus, oral, suspension in PEG 400, thrombosis induced 4 hours after treatment
Experimental: A venous stasis under hypercoagulation is produced according to the technique described by WESSLER et al. (J. Applied Physiol. 1959, p. 943-946). As in the technique described by J. HAUPMAN et al. (Thrombosis and Haemostasis 43(2), 1980, p. 118), the hypercoagulant used is a solution of activated factor X (Xa) supplied by Flow Laboratories (71 Knat per 12.5 ml of isotonic solution).
The study is performed on unfasted male Wistar rats weighing 250 to 280 g, divided into groups of 10 animals each. The test products are administered orally as a suspension in PEG 400. A thrombosis is induced 4 hours after this treatment and the thrombus formed is removed and weighed.
The results obtained at a dose of 3 mg/kg, administered orally, have been collated in Table I. The results obtained with the known products of the afore-mentioned prior art have also been collated in this Table.

SMILES | inhibition in vivo at 3 mg/kg [%]
CC(=O)O[C@@H]1[C@@H](OC(C)=O)[C@H](Sc2ccc(S(=O)(=O)c3ccccc3)cc2)SC[C@H]1OC(C)=O [Example 1, 4-(phenylsulfonyl)phenyl 2,3,4-tri-O-acetyl-1,5-dithio-β-D-xylopyranoside] | 20
O=S(=O)(c1ccccc1)c1ccc(S[C@@H]2SC[C@@H](O)[C@H](O)[C@H]2O)cc1 [Example 2, 4-(phenylsulfonyl)phenyl 1,5-dithio-β-D-xylopyranoside] | 49
CC(=O)O[C@@H]1[C@@H](OC(C)=O)[C@H](Sc2ccccc2S(C)(=O)=O)SC[C@H]1OC(C)=O [Example 3, 2-(methylsulfonyl)phenyl 2,3,4-tri-O-acetyl-1,5-dithio-β-D-xylopyranoside] | 29
CS(=O)(=O)c1ccccc1S[C@@H]1SC[C@@H](O)[C@H](O)[C@H]1O [Example 4, 2-(methylsulfonyl)phenyl 1.5-dithio-β-D-xylopyranoside] | 26
CS(=O)(=O)c1ccc(S[C@@H]2SC[C@@H](O)[C@H](O)[C@H]2O)cc1 [Example 6, 4-(methylsulfonyl)phenyl 1,5-dithio-β-D-xylopyranoside] | 61
CS(=O)(=O)c1ccc(O[C@@H]2SC[C@@H](O)[C@H](O)[C@H]2O)cc1 [Example 8, 4-(methylsulfonyl)phenyl 5-thio-β-D-xylpyranoside] | 30
CCS(=O)(=O)c1ccc(S[C@@H]2SC[C@@H](OC(C)=O)[C@H](OC(C)=O)[C@H]2OC(C)=O)cc1 [Example 9, 4-(ethylsulfonyl)phenyl 2,3,4-tri-O-acetyl-1,5-dithio-β-D-xylpyranoside] | 31
CCS(=O)(=O)c1ccc(S[C@@H]2SC[C@@H](O)[C@H](O)[C@H]2O)cc1 [Example 10, 4-(ethylsulfonyl)phenyl 1,5dithio-β-D-xylopyranoside] | 31
CS(=O)(=O)c1cccc(S[C@@H]2SC[C@@H](O)[C@H](O)[C@H]2O)c1 [Example 12] | 43
CC(=O)O[C@@H]1[C@@H](OC(C)=O)[C@H](Sc2ccc(S(=O)(=O)c3ccc(F)cc3)cc2)SC[C@H]1OC(C)=O [Example 13] | 58
O=S(=O)(c1ccc(F)cc1)c1ccc(S[C@@H]2SC[C@@H](O)[C@H](O)[C@H]2O)cc1 [Example 14, 4-[(4-fluorophenyl)sulfonyl]phenyl 1,5-dithio-β-D-xylpyranoside] | 61
N#Cc1ccc(S(=O)(=O)c2ccc(S[C@@H]3SC[C@@H](O)[C@H](O)[C@H]3O)cc2)cc1 [Example 16, 4-((4-cyanophenyl)sulfonyl)phenyl 1,5-dithio-β-D-xylopyranoside] | 66
CC(=O)O[C@@H]1[C@@H](OC(C)=O)[C@H](Sc2ccc(S(=O)(=O)N(C)C)cc2)SC[C@H]1OC(C)=O [Example 17, 4-(N,N-dimethylsulfonamidyl)phenyl 2,3,4-tri-O-acetyl-1,5-dithio-β-D-xylpyranoside] | 56
CN(C)S(=O)(=O)c1ccc(S[C@@H]2SC[C@@H](O)[C@H](O)[C@H]2O)cc1 [Example 18, 4-(N,N-dimethylsulfonamidyl)phenyl 1.5-dithio-β-D-xylopyranoside] | 46
CC(=O)O[C@@H]1[C@@H](OC(C)=O)[C@H](OC(C)=O)CS[C@H]1Oc1ccc(S(=O)(=O)N(C)C)cc1 [Example 19, 4-(N,N-dimethylsulfonamidyl)phenyl 2,3,4-tri-O-acetyl-5-thio-β-D-xylpyranoside] | 23
CN(C)S(=O)(=O)c1ccc(O[C@@H]2SC[C@@H](O)[C@H](O)[C@H]2O)cc1 [Example 20, 4-(N,N-dimethylsulfonamidyl)phenyl 5-thio-β-D-xylpyranoside] | 58
O=S(=O)(c1ccc(S[C@@H]2SC[C@@H](O)[C@H](O)[C@H]2O)cc1)N1CCCCC1 [Example 22, 4-(N-(piperidin-1-yl)sulfonamidyl)phenyl 1,5-dithio-β-D-xylpyranoside] | 47
